In series [1] the test system is RPTEC/TERT 1 human proximal tubule cells. Description: Imaging assay: CaP adhesion/deposition and cellular changes on RPTEC monolayers treated with 5/7 mM Ca/P. It is filed as cell-based. The procedure:
RPTEC/TERT 1 human proximal tubule cells (RPTEC) were cultured in T75 tissue culture flasks using ProxUp basal medium mixed with ProxUp supplements at 37° C. and 5% CO2 according to manufacturer's recommendations. Cells were used up to passage 30 and regularly tested for Mycoplasma infections. For experiments, RPTEC were cultured in 24-well plates at a seeding density of 150′000 cells/cm^2. Cell viability assessment and cell counting before seeding was performed using an automated cell counter (BioRad TC 20, Hercules, CA, USA).
For the comparison of selected IP6 analogues, ProxUp basal medium was prepared with the selected inhibitor and added to each well. Then, CaP precipitation was induced by direct addition of first, phosphate and second, calcium. Final concentrations of 7 mM phosphate and 5 mM calcium were used. Cells were incubated for 24 h at 37° C. and 5% CO2. Spiked medium was removed, and cells were washed twice with PBS before staining.
For staining, ProxUp basal medium was mixed with calcein (500 nM final concentration), EthD (6 μM final concentration), CellMask stain ([…]) and Hoechst 33342. Staining mixture was added to RPTEC and cells were incubated for 30 min in the dark at 37° C. and 5% CO2. Staining solution was removed, cells were washed with PBS once and ProxUp basal medium was added. Cells were immediately imaged after staining. Images were obtained by epifluorescence microscopy at 37° C., using a Leica CTR6000 microscope. For quantification 3 wells/condition were prepared and 3 images/well were taken. For preliminary adhesion experiments images were taken with a 10× objective, for the imaging assay 20× objective images were taken.
Multichannel images were saved as individual channel images in 8-bit tiff format. For analysis Hoechst channel images were thresholded using the triangle threshold. Touching nuclei of the binary image were further segmented using the watershed algorithm with the distance transform of the binary image as input and local maxima thereof as seeds.
For EthD channel images, high level of background noise was observed, potentially as a result of fluorescence of the CellMask stain bleeding through. […] A fixed minimum threshold was set at 60. Watershed segmentation similar to the Hoechst channel was performed to segment touching objects. For the calcein channel images adaptive thresholding by triangle thresholding achieved good detection of CaP deposits, which was validated by visual comparison to brightfield channel images. For compound experiments, an additional upper threshold was set to the minimum threshold of the pos.ctrl images for the respective experiment. Thereby an overly insensitive threshold in images with a high amount of CaP deposition was circumvented. The sum of foreground pixels of the binary image was used to calculate the total area of CaP deposits. The skimage label algorithm was used to label touching foreground regions.
To segment images to single cells the CellMask channel image was first binarized by adaptive thresholding, using a blocksize of 35, followed by median filtering. Binary erosion was performed to shrink the outlines. A version of watershed algorithm was used to segment the whole image into single cells. To this end, the distance transform of the binary erosion image was used as input image and seeds were set to the local maxima of the Hoechst channel image. While this protocol allowed for an approximation of single cell morphology, further improvements of both analytical and experimental staining procedure would be necessary to achieve more accurate results.
Additionally, texture features of calcein and CellMask channel images were extracted. Grey level co-occurrence matrices were calculated using one set offset of 5 pixel and an angle of 90°. Here, the use of larger offsets could improve the detection of changes in large-scale features, e.g. CaP clustering sites. […]

The test system is the same in series [2]. Description: RNA sequencing of RPTEC treated with Ca/P and compound. The class given is cell-based. The note with it: 50 μM compound. The procedure: RNA sequencing Cells were cultured as described in the imaging assay and treated with a medium control (ProxUp basal medium containing 1/1 mM Ca/P), 5/7 mM Ca/P, 5/7 mM Ca/P in medium containing 50 μM (OEG2)2-IP4 or 50 μM (OEG2)2-IP4 in medium for 24 h. Total RNA was extracted using the RNeasy kit (Quiagen) according to the manufacturer's instructions. Three wells per sample group were prepared and total RNA extracted of those 3 wells pooled. mRNA was purified and RNAseq library was prepared using the TrueSeq RNA kit (Illumina). Sequencing was performed on a Novaseq 6000 (Illumina). Reads were aligned to the human reference genome GRCh38.p10 using the STAR tool (https://github.com/alexdobin/STAR) and transcripts quantified using the Kallisto program (42). Ensembl release 91 was used for the gene model definitions. […] The heatmap was plotted using R software. Overrepresentation analysis was performed on Webgestalt.org (v2019) (43), using differentially expressed genes with p≤0.01, log 2fold change≥0.5. Differential expressed genes were compared to the gene ontology—biological process functional database and as a reference set the human genome—protein coding was used. The weighted set cover of the top 30 enriched categories was plotted. For comparison of expression levels of the selected genes, the fragments per kilobase of exon model per million reads mapped (FPKM) were used. Three independent experiments were performed. RNA sequencing raw data is available on the EMBL Nucleotide Sequence Database (ENA) under the accession number PRJEB38397.

For series [3] the following is noted: reported, Schantl et al. 2020; cited from earlier work.
Setting [4] is: 7 mM phosphate, 5 mM calcium, 24 h.

SMILES strings stand for the structures.

Regarding `COCCOCCO[C@@H]1C(OP(=O)(O)O)[C@H](OCCOCCOC)[C@@H](OP(=O)(O)O)C(OP(=O)(O)O)[C@H]1OP(=O)(O)O` (some centres unmarked) [(OEG2)2-IP4], in series [1] (setting [4]), the “concentration achieving complete inhibition of CaP adhesion” value is 50 µM and the “concentration down to which CaP adhesion was drastically reduced” value was 12.5 µM. Moreover, in series [1] (6-50 μM compound, 5/7 mM Ca/P), the “single cell area compared to the positive ctrl” value was “dose-dependently reduced”, the “single cell solidity compared to the positive ctrl” value is “increased” and the “total cell count/field of view compared to the positive ctrl” value is on record as “increased”. The “number of dead cells compared to the positive ctrl” value in series [1] (6-50 μM compound, 5/7 mM Ca/P, EthD staining) is “dose-dependently reduced”. Besides, in series [1] (6-50 μM compound, 24 h), the “image feature profile vs positive ctrl (+5/7 mM Ca/P) and negative ctrl” value was “dose-dependent reversal”. Further, in series [1] (6 and 13 μM compound, 5/7 mM Ca/P, calcein staining), the “total CaP area compared to the positive ctrl” value is on record as “reduction”. In addition, the “Ca/P-induced change in gene expression profile” value in series [2] (5/7 mM Ca/P, 24 h) was “prevented”. In addition, in series [2] (fold change ≥1.5 and p≤0.05), the “differentially expressed genes, Ca/P+compound vs. compound only” value turned out to be 77; the “differentially expressed genes, Ca/P+compound vs. negative ctrl” value came to 76; the “differentially expressed genes, Ca/P+compound vs. positive ctrl” value was 2437; the “differentially expressed genes, compound only vs. positive ctrl” value is on record as 2935. In addition, in series [3], the pharmacokinetic profile entry is on record as “favorable”.

Values taken from patent US20240000811A1, “INOSITOL HEXAKISPHOSPHATE ANALOGUES FOR TREATMENT OF CALCIFICATION ASSOCIATED KIDNEY DISEASES” (INOSITEC AG, priority 2020, published 2024).
